According to ChEMBL document CHEMBL1201862, “PubChem BioAssay data set” (2004):
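Exposure lasted 48 hours, with cells grown in 96-well plates and compounds tested at five concentrations. GI50: concentration for 50% inhibition of growth.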 The source made the active and inactive calls. No stated cut-off is given here; in the data, active = GI50 up to about 1.1 µM and inactive = higher.

Legend:
Assay in all cases: DTP human tumour cell line panel, 48 h
786-0 = tested on: 786-0
HOP-62 = tested on: HOP-62
HT-29 = tested on: HT-29
OVCAR-8 = tested on: OVCAR-8
OVCAR-4 = tested on: OVCAR-4
SW-620 = tested on: SW-620
MDA-N = tested on: MDA-N
DU-145 = tested on: DU-145
SK-MEL-5 = tested on: SK-MEL-5
SNB-19 = tested on: SNB-19
HL-60 = tested on: HL-60
MOLT-4 = tested on: MOLT-4
KM12 = tested on: KM12
Hs-578T = tested on: Hs-578T
UACC-257 = tested on: UACC-257
NCI-H460 = tested on: NCI-H460
HCT-15 = tested on: HCT-15
EKVX = tested on: EKVX
Malme-3M = tested on: Malme-3M

Structure (SMILES): CCOC(=O)C(=CNC(=S)N/N=C1\C(=O)Nc2ccccc21)C(=O)OCC
- GI50 (786-0): > 100 µM (inactive)
- GI50 (HOP-62): > 100 µM (inactive)
- GI50 (HT-29): 84.3 µM (inactive)
- GI50 (OVCAR-8): 89.9 µM (inactive)
- GI50 (OVCAR-4): > 100 µM (inactive)
- GI50 (SW-620): > 100 µM (inactive)
- GI50 (MDA-N): > 100 µM (inactive)
- GI50 (DU-145): > 100 µM (inactive)
- GI50 (SK-MEL-5): 90.8 µM (inactive)
- GI50 (SNB-19): > 100 µM (inactive)
- GI50 (HL-60): 31 µM (inactive)
- GI50 (MOLT-4): 84.7 µM (inactive)
- GI50 (KM12): 52 µM (inactive)
- GI50 (Hs-578T): 48.2 µM (inactive)
- GI50 (UACC-257): > 100 µM (inactive)
- GI50 (NCI-H460): 47.8 µM (inactive)

Structure (SMILES): CCCCn1c(C)c(C(=O)OCC)s/c1=N/Nc1nc2ccccc2nc1-c1ccccc1
- GI50 (786-0): 49.1 µM (inactive)
- GI50 (HOP-62): 30.8 µM (inactive)
- GI50 (HT-29): > 100 µM (inactive)
- GI50 (OVCAR-8): 56.2 µM (inactive)
- GI50 (OVCAR-4): 65 µM (inactive)
- GI50 (SW-620): > 100 µM (inactive)
- GI50 (MDA-N): > 100 µM (inactive)
- GI50 (DU-145): 37.7 µM (inactive)
- GI50 (SK-MEL-5): 46.8 µM (inactive)
- GI50 (SNB-19): 40.6 µM (inactive)
- GI50 (HL-60): 17.9 µM (inactive)
- GI50 (HCT-15): > 100 µM
- GI50 (MOLT-4): > 100 µM (inactive)
- GI50 (Hs-578T): 26.2 µM (inactive)
- GI50 (EKVX): > 100 µM (inactive)
- GI50 (UACC-257): > 100 µM (inactive)
- GI50 (NCI-H460): > 100 µM (inactive)

Structure (SMILES): O=[N+]([O-])/C(C(Cl)=C(Cl)Cl)=C(\Nc1cccc2cccnc12)SCc1ccccc1
- GI50 (786-0): 21.6 µM (inactive)
- GI50 (HOP-62): 15.8 µM (inactive)
- GI50 (HT-29): 23.6 µM (inactive)
- GI50 (OVCAR-4): 24.4 µM (inactive)
- GI50 (SW-620): 18.4 µM (inactive)
- GI50 (MDA-N): 31.1 µM (inactive)
- GI50 (DU-145): 21.5 µM (inactive)
- GI50 (SNB-19): 16.7 µM (inactive)
- GI50 (Malme-3M): 15.3 µM (inactive)
- GI50 (HCT-15): 19.9 µM
- GI50 (MOLT-4): 2.21 µM (inactive)
- GI50 (KM12): 17.2 µM (inactive)
- GI50 (Hs-578T): < 0.01 µM (active)
- GI50 (EKVX): 21.1 µM (inactive)
- GI50 (UACC-257): 21.5 µM (inactive)
- GI50 (NCI-H460): 21 µM (inactive)

Structure (SMILES): O=S(=O)(Nc1nc2ccccc2nc1Nc1cccc2ccccc12)c1ccccc1
- GI50 (786-0): 17 µM (inactive)
- GI50 (HOP-62): 13.9 µM (inactive)
- GI50 (OVCAR-8): 20.7 µM (inactive)
- GI50 (OVCAR-4): 1.24 µM (inactive)
- GI50 (SW-620): 25.8 µM (inactive)
- GI50 (MDA-N): > 100 µM (inactive)
- GI50 (DU-145): > 100 µM (inactive)
- GI50 (SK-MEL-5): 10.7 µM (inactive)
- GI50 (SNB-19): 20.1 µM (inactive)
- GI50 (Malme-3M): 4.48 µM (inactive)
- GI50 (KM12): 5.61 µM (inactive)
- GI50 (Hs-578T): 21.1 µM (inactive)
- GI50 (EKVX): 8.97 µM (inactive)
- GI50 (UACC-257): 39.4 µM (inactive)
- GI50 (NCI-H460): 4.41 µM (inactive)

Structure (SMILES): OCCCCn1cc(Cn2ncc3c(SCc4ccccc4)ncnc32)nn1
- GI50 (786-0): 63.4 µM (inactive)
- GI50 (HOP-62): 44.1 µM (inactive)
- GI50 (HT-29): 40.5 µM (inactive)
- GI50 (OVCAR-8): 58.3 µM (inactive)
- GI50 (OVCAR-4): 28.9 µM (inactive)
- GI50 (SW-620): 26.7 µM (inactive)
- GI50 (MDA-N): 15.7 µM (inactive)
- GI50 (DU-145): 58.5 µM (inactive)
- GI50 (SK-MEL-5): 21.7 µM (inactive)
- GI50 (SNB-19): 65.5 µM (inactive)
- GI50 (Malme-3M): > 100 µM (inactive)
- GI50 (HCT-15): 28.3 µM
- GI50 (MOLT-4): 21.3 µM (inactive)
- GI50 (KM12): 26 µM (inactive)
- GI50 (Hs-578T): 26 µM (inactive)
- GI50 (EKVX): 30.6 µM (inactive)
- GI50 (UACC-257): 49.4 µM (inactive)
- GI50 (NCI-H460): 41.4 µM (inactive)

Structure (SMILES): O=C(CCCCCCCCC(=O)N1C(=O)CC(=O)N(c2ccccc2)C1=S)N1C(=O)CC(=O)N(c2ccccc2)C1=S
- GI50 (786-0): > 100 µM (inactive)
- GI50 (HOP-62): > 100 µM (inactive)
- GI50 (HT-29): > 100 µM (inactive)
- GI50 (OVCAR-8): > 100 µM (inactive)
- GI50 (OVCAR-4): > 100 µM (inactive)
- GI50 (MDA-N): > 100 µM (inactive)
- GI50 (DU-145): > 100 µM (inactive)
- GI50 (SK-MEL-5): > 100 µM (inactive)
- GI50 (SNB-19): > 100 µM (inactive)
- GI50 (Malme-3M): > 100 µM (inactive)
- GI50 (HCT-15): > 100 µM
- GI50 (MOLT-4): > 100 µM (inactive)
- GI50 (KM12): > 100 µM (inactive)
- GI50 (Hs-578T): > 100 µM (inactive)
- GI50 (EKVX): > 100 µM (inactive)
- GI50 (UACC-257): > 100 µM (inactive)
- GI50 (NCI-H460): > 100 µM (inactive)

Structure (SMILES): C=C(C)C1CCC2(CO)C(O)CC3(C)C(CCC4C5(C)CCC(O)C(C)(C)C5CCC43C)C12 (stereo not given)
- GI50 (786-0): 8.09 µM (inactive)
- GI50 (HOP-62): 4.16 µM (inactive)
- GI50 (HT-29): 6.53 µM (inactive)
- GI50 (OVCAR-8): 3.85 µM (inactive)
- GI50 (SW-620): 21.8 µM (inactive)
- GI50 (MDA-N): 12.1 µM (inactive)
- GI50 (DU-145): 35.6 µM (inactive)
- GI50 (SK-MEL-5): 5.14 µM (inactive)
- GI50 (SNB-19): 5.36 µM (inactive)
- GI50 (Malme-3M): 13.6 µM (inactive)
- GI50 (HL-60): 25.3 µM (inactive)
- GI50 (HCT-15): 11.9 µM
- GI50 (MOLT-4): 27.4 µM (inactive)
- GI50 (KM12): 6.97 µM (inactive)
- GI50 (Hs-578T): 7.76 µM (inactive)
- GI50 (EKVX): 13.9 µM (inactive)
- GI50 (UACC-257): 10.5 µM (inactive)
- GI50 (NCI-H460): 11.8 µM (inactive)

Structure (SMILES): CC1OC(OC2C(O[C@H]3CC[C@@]4(C)C(=CC[C@H]5[C@@H]6C[C@@H]7O[C@]8(CC[C@@H](C)CO8)[C@@H](C)[C@@H]7[C@@]6(C)CC[C@@H]54)C3)OC(CO)C(O)C2OC2OC(CO)C(O)C(O)C2O)C(O)C(O)C1O (stereo not given in full)
- GI50 (786-0): 1.77 µM (inactive)
- GI50 (HOP-62): 2.22 µM (inactive)
- GI50 (HT-29): 14.7 µM (inactive)
- GI50 (OVCAR-8): 3.19 µM (inactive)
- GI50 (OVCAR-4): 1.58 µM (inactive)
- GI50 (SW-620): 0.205 µM (active)
- GI50 (MDA-N): 1.72 µM (inactive)
- GI50 (DU-145): 2.08 µM (inactive)
- GI50 (SK-MEL-5): 2.04 µM (inactive)
- GI50 (SNB-19): 1.87 µM (inactive)
- GI50 (Malme-3M): 1.69 µM (inactive)
- GI50 (HL-60): 3.35 µM (inactive)
- GI50 (HCT-15): 1.95 µM
- GI50 (KM12): 2.21 µM (inactive)
- GI50 (Hs-578T): 1.73 µM (inactive)
- GI50 (EKVX): 12.4 µM (inactive)
- GI50 (UACC-257): 1.86 µM (inactive)
- GI50 (NCI-H460): 2.22 µM (inactive)
